Patent publication US20020137929A1, “1 - (3-heterocyclylphenyl) isothiourea, -isourea, -guanidine and -amidine herbicidal agents” (Intellectual Property Department, BASF Aktiengesellschaft, priority 1998, published 2002)

Tests used:
ABUTH (Velvetleaf) = experiment: Postemergence herbicidal evaluation; assay type: in vivo, Abutilon theophrasti; settings: for ABUTH herbicidal rating: postemergence
How it was run: (§1)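 Rate range approx. 0.0156–0.500 kg/ha. Foliar application at 40 psi to ~2-week seedlings; surfactant 0.5% TWEEN 20 in 50/50 acetone/water. Evaluation 4–5 wk post-treatment by 0–9 visual injury score, means of replicate tests.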

GALAP (Galium) [1] = experiment: Preemergence herbicidal evaluation; assay type: in vivo, Galium aparine; settings: rated 4-5 weeks after treatment; for GALAP rating: preemergence, 0-9 scale
How it was run: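 Scores use a 0–9 visual scale covering stand, vigor, malformation, size and chlorosis relative to controls, rated four to five weeks after treatment. Before emergence, soil-planted seeds were sprayed with compound in aqueous acetone at roughly 0.0156–0.500 kg/ha and held in the greenhouse.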

MOOVA (Monochoria) = experiment: Postemergence weed control under flooded paddy conditions; assay type: in vivo, Monochoria vaginalis; settings: postemergence weeds, rated 3 to 4 weeks after treatment
How it was run: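 Flood-water application, about 0.0313–0.500 kg/ha a.i. in aqueous/acetone 50/50 v/v; water depth 1.5–3 cm throughout. Weeds 3–5 cm, rice 1.5–2.5 leaf. Greenhouse; 0–9 visual rating vs control at 3–4 wk.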

GALAP (Galium) [2] = experiment: Postemergence herbicidal evaluation; assay type: in vivo, Galium aparine; settings: for GALAP herbicidal rating: postemergence
How it was run: as §1

Structure (SMILES)	Herbicidal rating MOOVA (MOOVA (Monochoria); Rate 0.0313 kg/ha)	Herbicidal rating MOOVA (MOOVA (Monochoria); Rate 0.0625 kg/ha)	Herbicidal rating MOOVA (MOOVA (Monochoria); Rate 0.1250 kg/ha)	Herbicidal rating MOOVA (MOOVA (Monochoria); Rate 0.2500 kg/ha)	ABUTH herbicidal rating (ABUTH (Velvetleaf); rate 0.0158 kg/ha)	ABUTH herbicidal rating (ABUTH (Velvetleaf); rate 0.0313 kg/ha)	ABUTH herbicidal rating (ABUTH (Velvetleaf); rate 0.0625 kg/ha)	ABUTH herbicidal rating (ABUTH (Velvetleaf); rate 0.1250 kg/ha)	GALAP herbicidal rating (GALAP (Galium) [2]; rate 0.0158 kg/ha)	GALAP herbicidal rating (GALAP (Galium) [2]; rate 0.0313 kg/ha)	GALAP herbicidal rating (GALAP (Galium) [2]; rate 0.0625 kg/ha)	GALAP herbicidal rating (GALAP (Galium) [2]; rate 0.1250 kg/ha)	ABUTH herbicidal rating (ABUTH (Velvetleaf); rate 0.0156 kg/ha)	GALAP rating (GALAP (Galium) [1]; 0.0156 kg/ha)	GALAP rating (GALAP (Galium) [1]; 0.0313 kg/ha)	GALAP rating (GALAP (Galium) [1]; 0.0625 kg/ha)	GALAP rating (GALAP (Galium) [1]; 0.1250 kg/ha)	GALAP rating (GALAP (Galium) [1]; 0.2500 kg/ha)	GALAP rating (GALAP (Galium) [1]; 0.5000 kg/ha)	GALAP herbicidal rating (GALAP (Galium) [2]; rate 0.0156 kg/ha)	further results
C=CCN1C(=O)C(CC(=O)O)SC1=Nc1cc(-n2c(=O)cc(C(F)(F)F)n(C)c2=O)c(F)cc1Cl (stereo not drawn) [Compound 62, 3-Allyl-2-{{2-chloro-5-[3,6-dihydro-3-methyl-2,6-dioxo-4-(trifluoromethyl)-1(2H)-pyrimidinyl]-4-fluorophenyl}imino}-4-oxo-5-thiazolidineacetic acid]	4.0	9.0	9.0	9.0																	Postemergence herbicidal rating ABUTH (ABUTH (Velvetleaf); Rate 0.0158 kg/ha): 9.0; Postemergence herbicidal rating ABUTH (ABUTH (Velvetleaf); Rate 0.0315 kg/ha): 9.0; Postemergence herbicidal rating ABUTH (ABUTH (Velvetleaf); Rate 0.0630 kg/ha): 9.0; Preemergence herbicidal rating GALAP (GALAP (Galium) [1]; rate 0.0156 kg/ha): 0.0; Preemergence herbicidal rating GALAP (GALAP (Galium) [1]; rate 0.0313 kg/ha): 0.0; Preemergence herbicidal rating GALAP (GALAP (Galium) [1]; rate 0.0625 kg/ha): 0.0; Preemergence herbicidal rating GALAP (GALAP (Galium) [1]; rate 0.1250 kg/ha): 6.0; Preemergence herbicidal rating GALAP (GALAP (Galium) [1]; rate 0.2500 kg/ha): 9.0; Postemergence herbicidal rating GALAP (GALAP (Galium) [2]; Rate 0.0158 kg/ha): 1.0; Postemergence herbicidal rating GALAP (GALAP (Galium) [2]; Rate 0.0315 kg/ha): 5.0; Postemergence herbicidal rating GALAP (GALAP (Galium) [2]; Rate 0.0630 kg/ha): 5.0
C=CCN1C(=O)C(CC(=O)OC(C)C)SC1=Nc1cc(-n2c(=O)cc(C(F)(F)F)n(C)c2=O)c(F)cc1Cl (stereo not drawn) [Compound 66, Isopropyl 3-allyl-2-{{2-chloro-5-[3,6-dihydro-3-methyl-2,6-dioxo-4-(trifluoromethyl)-1(2H)-pyrimidinyl]-4-fluorophenyl}imino}-4-oxo-5-thiazolidineacetate]	9.0	9.0	9.0	9.0	9.0	9.0	9.0	9.0	2.0	3.0	4.0	9.0									Preemergence herbicidal rating GALAP (GALAP (Galium) [1]; rate 0.0156 kg/ha): 0.0; Preemergence herbicidal rating GALAP (GALAP (Galium) [1]; rate 0.0313 kg/ha): 0.0; Preemergence herbicidal rating GALAP (GALAP (Galium) [1]; rate 0.0625 kg/ha): 0.0; Preemergence herbicidal rating GALAP (GALAP (Galium) [1]; rate 0.1250 kg/ha): 3.5; Preemergence herbicidal rating GALAP (GALAP (Galium) [1]; rate 0.2500 kg/ha): 8.0; Preemergence herbicidal rating GALAP (GALAP (Galium) [1]; rate 0.5000 kg/ha): 9.0
C=CCN1C(=O)C(CC(=O)NOC)SC1=Nc1cc(-n2c(=O)cc(C(F)(F)F)n(C)c2=O)c(F)cc1Cl (stereo not drawn) [Compound 85]	9.0	9.0	9.0	9.0		9.0	9.0	9.0		1.0	3.0	5.0	9.0	0.0	0.0	0.0	4.0	6.0	9.0	0.0	
CCOC(=O)CN1C(=O)C(CC(=O)OC(C)C(=O)OCC)S/C1=N/c1cc(-n2c(=O)cc(C(F)(F)F)n(C)c2=O)c(F)cc1Cl (stereo not drawn) [Compound 87]	9.0	9.0	9.0	9.0		4.0	9.0	9.0		0.0	1.0	1.0	2.0				0.0	0.0	7.0	0.0	ABUTH herbicidal rating (ABUTH (Velvetleaf); rate 0.2500 kg/ha): 9.0; Herbicidal rating MOOVA (MOOVA (Monochoria); Rate 0.5000 kg/ha): 9.0; GALAP herbicidal rating (GALAP (Galium) [2]; rate 0.2500 kg/ha): 3.0
COC(=O)CC1SC(=Nc2cc(-n3c(=O)cc(C(F)(F)F)n(C)c3=O)c(F)cc2Cl)N(C)C1=O (stereo not drawn) [Compound 88, Methyl 2-{{2-chloro-5-[3,6-dihydro-3-methyl-2,6-dioxo-4-(trifluoromethyl)-1(2H)-pyrimidinyl]-4-fluorophenyl}imino}-3-methyl-4-oxo-5-thiazolidineacetate]	9.0	9.0	9.0	9.0	9.0				4.0					0.0	0.0	3.0	3.0	9.0			ABUTH herbicidal rating (ABUTH (Velvetleaf); rate 0.0315 kg/ha): 9.0; ABUTH herbicidal rating (ABUTH (Velvetleaf); rate 0.0630 kg/ha): 9.0; GALAP herbicidal rating (GALAP (Galium) [2]; rate 0.0315 kg/ha): 4.0; GALAP herbicidal rating (GALAP (Galium) [2]; rate 0.0630 kg/ha): 4.0
CN1C(=O)C(CC(N)=O)SC1=Nc1cc(-n2c(=O)cc(C(F)(F)F)n(C)c2=O)c(F)cc1Cl (stereo not drawn) [Compound 92, 2-{{2-Chloro-5-[3,6-dihydro-3-methyl-2,6-dioxo-4-(trifluoromethyl)-1(2H)-pyrimidinyl]-4-fluorophenyl}imino}-3-methyl-4-oxo-5-thiazolidineacetamide]	9.0	9.0	9.0	9.0	9.0				0.0					0.0	0.0	0.0	9.0	9.0			ABUTH herbicidal rating (ABUTH (Velvetleaf); rate 0.0315 kg/ha): 9.0; ABUTH herbicidal rating (ABUTH (Velvetleaf); rate 0.0630 kg/ha): 9.0; GALAP herbicidal rating (GALAP (Galium) [2]; rate 0.0315 kg/ha): 3.0; GALAP herbicidal rating (GALAP (Galium) [2]; rate 0.0630 kg/ha): 4.0
C=CCN1C(=O)C(CC(=O)OC(C)C(=O)OCC)SC1=Nc1cc(-n2c(=O)ccn(C)c2=O)c(F)cc1Cl [Compound 94, 3-Allyl-2-{{2-chloro-5-[3,6-dihydro-3-methyl-2,6-dioxo-1(2H)-pyrimidinyl]-4-fluorophenyl}imino}-4-oxo-5-thiazolidineacetic acid, ester with ethyl lactate, (R,S)-]	9.0	9.0	9.0	9.0	9.0				3.0					0.0	0.0	0.0	3.0	9.0			ABUTH herbicidal rating (ABUTH (Velvetleaf); rate 0.0315 kg/ha): 9.0; ABUTH herbicidal rating (ABUTH (Velvetleaf); rate 0.0630 kg/ha): 9.0; GALAP herbicidal rating (GALAP (Galium) [2]; rate 0.0315 kg/ha): 4.0; GALAP herbicidal rating (GALAP (Galium) [2]; rate 0.0630 kg/ha): 4.0
CN1C(=O)C(CC(=O)NS(C)(=O)=O)SC1=Nc1cc(-n2c(=O)cc(C(F)(F)F)n(C)c2=O)c(F)cc1Cl (stereo not drawn) [Compound 97, 2-{{2-Chloro-5-[3,6-dihydro-3-methyl-2,6-dioxo-4-(trifluoromethyl)-1(2H)-pyrimidinyl]-4-fluorophenyl}imino}-3-methyl-N-(methylsulfonyl)-4-oxo-5-thiazolidineacetamide]	9.0	9.0	9.0	9.0		4.0	7.0	9.0		0.0	1.0	1.0	4.0				1.0	0.0	5.0	0.0	
